The record followed here is PMC7793531 (International Journal of Molecular Sciences, 2020).

Structures are written as SMILES. Starred links: 1 amine or outer side, 2 acyl side, 3 side chain; linkers in the order of their positions; H or OH if unused. Non-standard residues stand in square brackets, D forms with d. Residues, ends and D or L forms follow the SMILES beside them. Groups on a side chain read outwards from the residue. ξ: configuration not given here. *: point of attachment. Oic(3aξ,7aξ) = O=C(O)[C@@H]1CC2CCCCC2N1; X1 = N=C(N)NCCCC[C@H](N)CN*; Dab = NCC[C@H](N)C(=O)O; CO = O=C([*:1])[*:2]

The nature of the data set: In vitro enzymatic stability in human blood serum (LC-SWATH-MS). It is filed as in vitro ADME. The following applies: human blood serum (pooled from four healthy persons), 37 °C, after 96 h, read-out: compound still intact. As for the experimental part:
Rapid renal clearance and enzymatic degradation are classified as most important disadvantages of peptides as drugs. Covalent linkage to plasma proteins or chemical modifications, including amide bond modifications, might improve their half-lives. We performed proteolytic stability studies in human blood serum to investigate whether the introduction of urea bonds affected the half-lives of compounds from each of synthesized group of hybrids. Compounds 3, 6 and 7 were incubated with human serum at 37 °C. Samples were taken at different time intervals and analyzed using LC-SWATH-MS [88, 89, 90]. […] Hybrids 6 and 7 were stable toward enzymatic degradation, with 50% of each compound still being intact after 96 h (Figure 5). […] Overall, it can be concluded that the substitution of an amide bond with a urea bond has a positive effect on the proteolytic stability of the examined inhibitors.
The study was conducted in full accordance with ethical principles in accordance with the ICH E6 (R2) Guideline for Good Clinical Practice and the Code of Good Customs in Science developed by the Polish Academy of Sciences. Signed consent for using serum was obtained from volunteers. The Rector’s Commission for Ethics of Scientific Research with Human Participation, University of Warsaw, Warsaw, Poland gave the ethical approval (approval number 51/2020). Human blood from four healthy persons was directly drawn into evacuated tubes and left undisturbed at room temperature for 1 h to clot. Tubes were centrifuged at 2500× g for 10 min to prevent possible platelet activation. Serum was pipetted out of the blood collection tubes, pooled and collected in microtubes.
A degradation assay was adapted from a method described previously. Human blood serum was preactivated in Eppendorf ThermoMixer® Comfort (Hamburg, Germany) at 37 °C for 20 min (350 rpm). Next, 20 μL of aqueous urea–peptide hybrid stock solution was added to give ∼750 μg/mL final compound concentration, and incubation was continued. At selected time intervals, 50 μL of the mixture was collected and quenched by adding 200 μL of ACN:H2O:FA mixture (89:10:1, v:v:v). The obtained suspension was vortexed for 1 min (3000 min^−1) and centrifuged for 10 min in 4 °C (11,000× g). 100 μL of supernatant was collected and lyophilized. The samples reconstituted in 1 mL of 10 mM ammonium formate with 0.1% FA were subjected to LC-MS. Relative concentration at time intervals was calculated using peak area of either individual or most intense fragment of compound of interest. Analyst software version 1.7.1 was used for data acquisition, Peak View 2.2 and MultiQuant 2.1 (Sciex, ON) were used for data processing. Detailed analytical data can be found in Supplementary Materials (Figures S17–S45). […]

On to `N=C(N)NCCCC[C@H](N)CNC(=O)NCC[C@H](N)C(=O)N[C@@H](CCN)C(=O)N1C2CCCCC2C[C@H]1C(=O)N[C@@H](CCCNC(=N)N)C(=O)O` (stereo partly drawn) [Compound 6, H-Dab(hArg^U)Dab-Oic-Arg-OH] (H-[Dab]([CO-X1])[Dab][Oic(3aξ,7aξ)]R-OH), for which the remaining at 96 h was 50%.
